Reference: patent publication US20210206791
Where “and” joins values, the source holds several entries; their conditions need not be identical. Equal values may be shown once. Read-outs that look alike come from different tables or passages of the source.

Details: the molecule shown is the open-chain precursor, crosslinker bond, CH3CN/H2O 1:1, 0.1 mM, 25.0 °C

H-Ala-Cys-Tyr-Lys-Arg-Ser-Asp-Phe-Thr-Cys-Gly-Gly-Gly-Ser-NH2?
ring closure, yield after HPLC (bis-Pd aryl reagent 6b (2 equiv)/Tris pH 7.5): 85%
ring closure, yield after HPLC (bis-Pd aryl reagent 6c (2 equiv)/Tris pH 7.5): 70%
ring closure, yield after HPLC (bis-Pd aryl reagent 6e (2 equiv)/Tris pH 7.5): 100%
ring closure, yield after HPLC (bis-Pd aryl reagent 6d (2 equiv)/Tris pH 7.5): 84%
ring closure, yield after HPLC (bis-Pd aryl reagent (2 equiv, not named)/Tris pH 7.5): 79% and 92% and 94%
